These results are taken from ChEMBL document CHEMBL1129142, “Synthesis of azido derivatives of semotiadil, a novel 1,4-benzothiazine calcium antagonist, for photoaffinity probes of calcium channels” (Bioorg Med Chem Lett, 1996).

pIC50, pKi: −log10 of the molar value.

A short description of assay [1]: [Ca2+] antagonistic activity was measured with isolated depolarized guinea pig taenia cecum. In kind it is functional, tissue-based, Cavia porcellus, Caecum.
Assay [2] in a line: Displacement of [3H]semotiadil from L-type calcium channel of rabbit skeletal muscle. In kind it is tissue-based, Oryctolagus cuniculus, Muscle tissue.
Assay [3] in a line: [Ca2+] antagonistic activity was measured with isolated depolarized guinea pig taenia cecum.(test 1). In kind it is functional, tissue-based, Cavia porcellus, Caecum.
Assay [4] is described as follows: [Ca2+] antagonistic activity was measured with isolated depolarized guinea pig taenia cecum.(test 2). In kind it is functional, tissue-based, Cavia porcellus, Caecum.

The term pIC50 denotes −log10 of the IC50, conventionally taken in molar units. Compound `COc1ccc(OCCCN(C)CCOc2ccc3c(c2)OCO3)c([C@H]2Sc3ccccc3N(CCN=[N+]=[N-])C2=O)c1` had a pIC50 in assay [1] of 6.56. For orientation: pKi means the negative decadic logarithm of the Ki, by convention in mol/L. For `COc1ccc(OCCCN(C)CCOc2cccc(N=[N+]=[N-])c2)c([C@H]2Sc3ccccc3N(C)C2=O)c1`, in assay [2], the pKi is 5.57. This compound also gave a negative-log IC50 (pIC50) in assay [1] of 6.18. As for `COc1ccc(OCCCN(C)CCOc2ccc3c(c2)OCO3)c([C@H]2Sc3ccccc3N(CCCCN=[N+]=[N-])C2=O)c1`, the pIC50 in assay [1] is 6.27. `COc1ccc(OCCCN(C)CCOc2cccc(N=[N+]=[N-])c2)c(C2Sc3ccccc3N(C)C2=O)c1` (centres undefined): the values for the pIC50 in assay [3] and in assay [4] were 6.37 and 5.86, respectively. `COc1ccc(OCCCN(C)CCOc2ccc3c(c2)OCO3)c([C@H]2Sc3ccccc3N(C)C2=O)c1` [SEMOTIADIL]: the figures for the pIC50 in assay [3] and in assay [4] were 7.37 and 7.26, respectively. Further, in assay [2], the negative-log Ki (pKi) was 6.92.
